Data taken from ChEMBL document CHEMBL5532726, “Somatostatin Receptor Subtype 4 Agonists for Potential Treatment of Alzheimer's Disease and Other Central Nervous System Disorders” (ACS Med Chem Lett, 2024).

Molecular target: Somatostatin receptor type 1 (Homo sapiens, UniProt P30872)
Sequence (P30872 whole entry): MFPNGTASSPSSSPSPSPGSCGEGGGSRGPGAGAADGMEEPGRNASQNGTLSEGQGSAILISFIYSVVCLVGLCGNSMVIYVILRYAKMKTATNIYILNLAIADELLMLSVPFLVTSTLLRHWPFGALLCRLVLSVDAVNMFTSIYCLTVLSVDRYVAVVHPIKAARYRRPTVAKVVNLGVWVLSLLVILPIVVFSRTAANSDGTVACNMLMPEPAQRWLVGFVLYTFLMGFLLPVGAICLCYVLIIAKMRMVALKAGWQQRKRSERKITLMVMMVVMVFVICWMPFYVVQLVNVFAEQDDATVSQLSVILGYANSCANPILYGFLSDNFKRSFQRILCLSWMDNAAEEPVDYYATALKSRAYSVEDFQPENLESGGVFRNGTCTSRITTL

IC50: > 50.1 µM
Compound: CC(Oc1ccccc1C1CC1)C(=O)N[C@H]1CCNC[C@@H]1F (stereo partly specified)
